Assays:
Format in all cases: in vivo, BALB/c mice
[1] = tested on: 4T1 mammary carcinoma cells; assay: 4T1 mammary carcinoma flank tumor model, intratumoral CDN
Procedure: Either CT26 colon carcinoma cells (1×10^5 cells in 100 μL PBS) or 4T1 mammary carcinoma cells (1×10^5 cells in 100 μL PBS) were implanted subcutaneously on the flanks of 6-8 week old female BALB/c mice (8 mice per group). Treatments began when tumors reached a volume of approximately 75 mm^3, which was approximately day 14 post tumor implantation. The compounds Rp, Rp dithio cyclic [A(2′,5′)pA(3′,5′)p] (ML RR-CDA) or Rp, Rp dithio cyclic [G(2′,5′)pG(3′,5′)p] (ML RR-CDG) compounds (25 μg in a total volume of 40 μL HBSS), or HBSS vehicle control, and Rp, Rp dithio cyclic [A(2′,5′)pA(3′,5′)p] (ML RR-CDA) (50 μg in a total volume of 40 μL HBSS) or HBSS vehicle control, were administered by subcutaneous injection into the center of the tumor using a 27 gauge needle. Injections were repeated every three days, for a total of three intratumoral injections.
To determine whether CDN derivative molecules induce effective and durable anti-tumor immunity in an alternate tumor model, 6-8 week old female BALB/c mice (8 mice per group) were implanted with 4T1 mammary carcinoma cells (1×10^5 cells in 100 μL PBS). […] On day 35 post tumor implantation, surviving mice and age-matched naïve control mice were implanted on the contralateral flank with either CT26 or 4T1 (both 1×10^5 cells in 100 μL PBS) tumor cells (4 mice per group), and monitored for tumor growth.

AH1 peptide = assay: AH1-specific IFN-γ ELISpot of PBMCs from treated CT26-bearing mice; details: day 18 post tumor implantation, 1 μM AH1 peptide, P=0.003, FIG. 21B
Procedure: To determine whether the synthetic derivative CDN molecules elicit durable and effective anti-tumor T-cell immunity, 6-8 week old female BALB/c mice (8 mice per group) were implanted with CT26 colon carcinoma cells (1×10^5 cells in 100 μL PBS). Mice were treated with Rp, Rp dithio cyclic [A(2′,5′)pA(3′,5′)p] (ML RR-CDA) compound ([…] in a total volume of 40 μL HBSS) or HBSS vehicle control, and tumor growth was monitored as per previous example. Mice were bled on day 18 post tumor implantation and PBMCs were isolated by Ficoll gradient (Miltenyi Biotech). 5×10^4 PBMCs were stimulated overnight in an IFNγ ELISpot assay with media alone (unstimulated), or with 1 μM of the endogenous H-2 L^d-restricted tumor rejection antigen AH1 peptide in the presence of 1×10^5 naïve splenocytes as feeder cells. IFN-γ ELISpot plates were developed and quantified using a CTL plate reader and ImmunoSpot software. On day 55 post tumor implantation, surviving mice and age-matched naïve control mice were implanted on the contralateral flank with either CT26 or 4T1 (both 1×10^5 cells in 100 μL PBS) tumor cells (4 mice per group), and monitored for tumor growth.

[2] = tested on: CT26 colon carcinoma cells; assay: Abscopal model, CT26 tumors on contralateral flanks, primary tumor injected; details: 50 μg into the primary tumor only, three injections
Text: (§1) The STING-dependent induction of tumor-specific T cell immunity protects animals against subsequent challenge with the autologous tumor. It will be apparent to those skilled in the art that advanced cancer is metastatic, and that to be effective, therapies must inhibit outgrowth of distal masses. Treatment of one or selected lesions that inhibits tumor outgrowth of distal untreated tumor masses is known as an abscopal effect. To test whether IT injection of a selected tumor with synthetic CDN derivative molecules inhibited the tumor outgrowth of a distal untreated tumor, (A) CT26 colon carcinoma cells (1×10^5 cells in 100 μL PBS) and (B) 4T1 mammary carcinoma cells (1×10^5 cells in 100 μL PBS) were implanted subcutaneously on the contralateral flanks of 6-8 week old female BALB/c mice (8 mice per group). Treatments began when tumors reached a volume of approximately 75 mm^3, on day 13 post tumor implantation. The Rp, Rp dithio cyclic [A(2′,5′)pA(3′,5′)p] (ML RR-CDA) compound (50 μg in a total volume of 40 μL HBSS), or HBSS vehicle control, was administered by subcutaneous injection into the center of the primary (right side) tumor only using a 27 gauge needle. Injections were repeated every three days, for a total of three intratumoral injections.

[3] = tested on: 4T1 mammary carcinoma cells; assay: Abscopal model, 4T1 tumors on contralateral flanks, primary tumor injected; details: 50 μg into the primary tumor only, three injections
Text: as §1

Nc1ncnc2c1ncn2[C@@H]1O[C@@H]2COP(O)(=S)O[C@@H]3C(O)[C@@H](COP(O)(=S)O[C@H]2[C@H]1O)O[C@H]3n1cnc2c(N)ncnc21 (stereo partly shown) [ML RR-CDA, dithio-[RP, RP]-cyclic-[A(2′,5′)pA(3′,5′)p]]
inhibition of tumor growth of established 4T1 mammary carcinomas ([1]; 50 μg intratumoral, FIG. 22A): completely inhibited tumor growth of established 4T1 mammary carcinomas
inhibition of tumor growth of established 4T1 mammary tumors ([1]; intratumoral, every three days, three injections, 8 mice per group, FIG. 19C): completely inhibited tumor growth of all established 4T1 mammary tumors
IFN-γ production of PBMCs in response to AH1 peptide (AH1 peptide): significantly higher IFN-γ in response to AH1 peptide stimulation, as compared to the HBSS-treated control group
inhibition of the treated primary tumor, CT26 ([2]; FIG. 23A): complete inhibition of the treated primary tumor
outgrowth of the contralateral (untreated) tumor, CT26 ([2]; P=0.0011, FIG. 23A): significantly inhibited
inhibition of the treated primary tumor, 4T1 ([3]; FIG. 23B): complete inhibition of the treated primary tumor
outgrowth of the contralateral (untreated) tumor, 4T1 ([3]; P=0.0019, FIG. 23B): significantly inhibited

Source: patent US9724408B2, “Compositions and methods for activating stimulator of interferon gene-dependent signalling” (ADURO BIOTECH, INC., priority 2013, dated 2017)
